Experimental data published in the supplement of paper PMC11451515.

Test system: SEM cells
Assay: cell viability relative to DMSO control; higher = less cytotoxic
Conditions: 48 h
Summary of the method: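 Viability is expressed as a percentage of DMSO wells within each plate, and cell-free wells serve as background. Seeding densities in the 1536-well plates (5 μl) were 500 cells/well for NOMO1 or SEM leukemia cells and 1000 cells/well for P12-Ichikawa. Each line was adapted for at least four passages in each medium. Library compounds in DMSO were pin-dosed at 47 μM to 0.79 nM (11 points, threefold), and CellTiter-Glo One luminescence was read after 48 h at 37°C.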

[1] = HPLM + 10% dialyzed FBS, 0.000781 µM
[2] = HPLM + 10% dialyzed FBS, 0.00234 µM
[3] = HPLM + 10% dialyzed FBS, 0.00702 µM
[4] = HPLM + 10% dialyzed FBS, 0.0211 µM
[5] = HPLM + 10% dialyzed FBS, 0.0632 µM
[6] = HPLM + 10% dialyzed FBS, 0.19 µM
[7] = HPLM + 10% dialyzed FBS, 0.569 µM
[8] = HPLM + 10% dialyzed FBS, 1.71 µM
[9] = HPLM + 10% dialyzed FBS, 5.12 µM
[10] = HPLM + 10% dialyzed FBS, 15.4 µM
[11] = HPLM + 10% dialyzed FBS, 46.1 µM
[12] = RPMI 5 mM glucose + 10% FBS, 0.000781 µM
[13] = RPMI 5 mM glucose + 10% FBS, 0.00234 µM
[14] = RPMI 5 mM glucose + 10% FBS, 0.00702 µM
[15] = RPMI 5 mM glucose + 10% FBS, 0.0211 µM
[16] = RPMI 5 mM glucose + 10% FBS, 0.0632 µM
[17] = RPMI 5 mM glucose + 10% FBS, 0.19 µM
[18] = RPMI 5 mM glucose + 10% FBS, 0.569 µM
[19] = RPMI 5 mM glucose + 10% FBS, 1.71 µM
[20] = RPMI 5 mM glucose + 10% FBS, 5.12 µM
[21] = RPMI 5 mM glucose + 10% FBS, 15.4 µM
[22] = RPMI 5 mM glucose + 10% FBS, 46.1 µM
[23] = RPMI 5 mM glucose + 10% dialyzed FBS, 0.000781 µM
[24] = RPMI 5 mM glucose + 10% dialyzed FBS, 0.00234 µM
[25] = RPMI 5 mM glucose + 10% dialyzed FBS, 0.00702 µM
[26] = RPMI 5 mM glucose + 10% dialyzed FBS, 0.0211 µM
[27] = RPMI 5 mM glucose + 10% dialyzed FBS, 0.0632 µM
[28] = RPMI 5 mM glucose + 10% dialyzed FBS, 0.19 µM
[29] = RPMI 5 mM glucose + 10% dialyzed FBS, 0.569 µM
[30] = RPMI 5 mM glucose + 10% dialyzed FBS, 1.71 µM
[31] = RPMI 5 mM glucose + 10% dialyzed FBS, 5.12 µM
[32] = RPMI 5 mM glucose + 10% dialyzed FBS, 15.4 µM
[33] = RPMI 5 mM glucose + 10% dialyzed FBS, 46.1 µM

Compound	cell viability [1]	cell viability [2]	cell viability [3]	cell viability [4]	cell viability [5]	cell viability [6]	cell viability [7]	cell viability [8]	cell viability [9]	cell viability [10]	cell viability [11]	cell viability [12]	cell viability [13]	cell viability [14]	cell viability [15]	cell viability [16]	cell viability [17]	cell viability [18]	cell viability [19]	cell viability [20]	cell viability [21]	cell viability [22]	cell viability [23]	cell viability [24]	cell viability [25]	cell viability [26]	cell viability [27]	cell viability [28]	cell viability [29]	cell viability [30]	cell viability [31]	cell viability [32]	cell viability [33]
COc1cccc2c(NCc3ccccc3)nc(-n3c(N)nc4ccccc43)nc12	81.2%	88.4%	104%	93.6%	89.1%	90.6%	83.2%	92.2%	64.1%	29.6%	8.4%	95.2%	92.8%	98.7%	97.5%	94.8%	87.6%	95%	72.1%	54.9%	24.3%	7.18%	81.8%	73.7%	91.9%	99.8%	111%	106%	85.9%	76.5%	65.1%	45.2%	9.78%
C[C@H](NC(=O)Cc1cc(F)cc(F)c1)C(=O)N[C@@H]1C(=O)N(C)c2ccccc2-c2ccccc21	84.8%	106%	103%	77.7%	102%	102%	110%	106%	35.4%	3.3%	2.09%	94.2%	101%	88.5%	80.6%	107%	103%	98.1%	16%	4.52%	3.08%	1.53%	107%	103%	100%	79.4%	112%	109%	113%	105%	5.44%	3.49%	2.01%
CC(Cc1ccc(O)c(O)c1)(NN)C(=O)O (configuration not stated)	103%	121%	130%	125%	122%	131%	105%	112%	108%	119%	79.9%	117%	130%	122%	127%	126%	119%	99%	121%	110%	113%	76.1%	–	–	–	–	–	–	–	–	–	–	–
Nc1nc(Nc2ccc([S+](N)(=O)[O-])cc2)nn1C(=O)c1c(F)cccc1F	104%	111%	97.8%	133%	104%	113%	123%	116%	64.1%	32.1%	5.68%	100%	107%	113%	110%	114%	101%	100%	109%	76.5%	34.7%	6.53%	88.9%	108%	114%	115%	110%	122%	111%	123%	64.8%	34.5%	4.33%
O=C(O)CCNc1cc(N2CCc3ccccc3CC2)nc(-c2ccccn2)n1	123%	120%	130%	127%	139%	144%	129%	133%	121%	129%	139%	105%	124%	123%	118%	121%	103%	103%	95.9%	99.2%	115%	76.9%	112%	116%	127%	110%	116%	120%	130%	112%	101%	120%	99.6%
CO[C@H]1/C=C/O[C@@]2(C)Oc3c(C)c(O)c4c(O)c(c(/C=N/N5CCN(C)CC5)c(O)c4c3C2=O)NC(=O)/C(C)=C\C=C\[C@H](C)[C@H](O)[C@@H](C)[C@@H](O)[C@@H](C)[C@H](OC(C)=O)[C@@H]1C	107%	121%	130%	126%	119%	121%	119%	113%	102%	96.1%	67%	62.7%	84.8%	87.1%	82.4%	77.1%	78.6%	75.4%	74.9%	55%	56%	23.5%	108%	104%	104%	103%	109%	108%	123%	111%	102%	90.4%	66.5%
O=C(O)[C@@H](c1ccc(OCc2ccc3ccccc3n2)cc1)C1CCCC1	116%	124%	122%	114%	123%	45.5%	125%	114%	43.4%	113%	95.6%	–	–	–	–	–	–	–	–	–	–	–	109%	151%	120%	127%	148%	52%	129%	124%	19.4%	114%	83.1%
CCNC(=O)Nc1ccc(-c2nc3c(c(N4CCOC[C@@H]4C)n2)CCN(C2COC2)C3)cc1	96.1%	116%	111%	113%	108%	87.7%	98.9%	57.7%	43.5%	31.7%	32.1%	105%	105%	114%	108%	113%	95.1%	87.8%	55.7%	41.1%	27%	20.9%	119%	125%	104%	120%	121%	109%	102%	79.2%	51.4%	41%	36.1%
